In brackets after ≈: the same amount, converted by molar mass.
Tests used:
[1] = system: S. aureus Spain #356 (Meth^R); assay: Broth microdilution MIC (NCCLS); format: cell-based; conditions: Staphylococcus aureus, 24 h
How it was run: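 MIC = lowest drug concentration with no bacterial growth, read at 650 nm and visually after 24 h at 35° C. Assay run in MHB per NCCLS, inoculum 5×10^5 CFU/mL, compounds serially diluted 2-fold in plate.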

[2] = system: human serum proteins; assay: Serum binding determination by ultrafiltration/HPLC; format: in vitro ADME; conditions: by HPLC
Method: (§1) The more accurate measurement of binding of selected cephalosporin compounds was performed using HPLC as described below.
(§2) 1. Serum is placed in a shaking water bath preheated to 37±2° C. for 5 to 10 minutes to heat serum to 37° C. Serum pH is measured and recorded, while serum is 37° C. using pH paper. Measurements are taken twice, 3 minutes apart. If the pH is not 7.4±0.4 then the pH is adjusted by blowing 5% CO2/95% O2 over the serum. After blowing for several minutes, serum is heated to 37° C. and measurements are taken twice, 3 minutes apart using pH paper to determine the pH. Store at 4° C. The serum is stable for 7 days. Always check the pH before each use.
(§3) 2. Before any centrifugation, the centrifuge temperature must be adjusted to 25±2° C. Preheat the centrifuge by spinning for 45 minutes at the same speed to be used in the assay (1900 g) with two tubes of water in the rotor and the temperature set to 25° C. When the centrifuge stops immediately check the temperature of the tubes of water with a calibrated thermometer. The temperature of the tubes of water must be 25±2° C. […] Continue spinning and measuring the temperature and adjusting the setting until the temperature is 25±2° C.
(§4) 3. Prepare blank ultrafiltrate by pipetting blank pH 7.4 serum into an Amicon Centrifree Micropartition devices, centrifuge: fixed angle rotor, 1900 g, 25° C. for 20 minutes. Heat ultrafiltrate in a shaking water bath preheated to 37° C. Measure ultrafiltrate pH and adjust to the pH of the serum (7.4±0.2).
(§5) 4. Pipette 190 ul of blank ultrafiltrate into a set of labeled 1.7 mL polypropylene microfuge tubes for 3 of each level. Pipette 10 μL of the appropriate standard stock 50, 200, 1000 μg/mL to make standards 2.5, 10, and 50 μg/mL respectively. Vortex each tube well. One set of the standard samples are mixed 1:1 with 0.2 M acetic acid and injected onto the HPLC (MSTD). These samples are the membrane standards and will be used to compare to the other standards. Pipette 190 ul of ultrafiltrate and spike with 10 ul of whatever solution (e.g. water) the standards are prepared in to make the zero standard.
(§6) 5. Pipette 475 μL of blank heated pH 7.4 serum into a set of labeled 1.7 mL polypropylene microfuge tubes for 2 of each (Serum A and Serum B). Pipette 25 μL of the 1000 μg/mL standard stock into each tube, vortex each tube well to make serum standard 50 μg/mL. Remove 100 μL of serum and deproteinate with 200 μL 4% TCA while vortexing to make serum time 0 (serum 50, T0). Place serum tubes in a shaking water bath at 37° C. for 10 minutes. Pipet 100 μL of serum out and deproteinate with 200 μL 4% TCA, to make serum time 10 min (serum 50, T10). Pipet 200 ul serum standard 50 μg/mL into an ultrafiltration device, which is not treated with TCA, to determine free drug in samples (Rat Serum 50).
(§7) 6. Transfer serum and standard samples to labeled Amicon Centrifree Micropartition filters, and centrifuge: 1900 g, 25° C. for 10 minutes. The extracted serum samples (T0 and T10) are spun down and supernatant is loaded into HPLC vials.
(§8) 7. 100 μL of ultrafiltrate sample and 100 μL of 0.2 M acetic acid were mixed together to stabilize the compound in ultrafiltrate.
(§9) 8. Transfer entire stabilized ultrafiltrate solution to a labeled autoinjector HPLC vial cap with Teflon septa, and inject on HPLC.
(§10) Peak height or area is used in a weighted linear regression.

[3] = system: rat serum proteins; assay: as above; format: in vitro ADME; conditions: by HPLC
Method: as §1, §2, §3, §4, §5, §6, §7, §8, §9, §10

[4] = system: rhesus serum proteins; assay: as above; format: in vitro ADME; conditions: by HPLC
Method: as §1, §2, §3, §4, §5, §6, §7, §8, §9, §10

[5] = In vitro stability of compounds in rat serum; format: in vitro ADME; conditions: for Stability in rat serum (% loss): after 60 min exposure to rat serum, 37° C., HPLC; for stability of compounds in rat serum: Table 2 data
Method: In general, compounds from the class of 7-acylamino-3-heteroarylthio-3-cephem carboxylic acids have higher chemical reactivity and lower stability towards chemical or enzymatic decomposition than most typical cephalosporins. […] Results shown in Table 2 represent percentage loss of the initial amount of cephalosporin compound upon 60 min incubation in rat serum.
Procedure for measuring degree of degradation of cephalosporin compounds in rat serum was as follows:
Fresh control rat serum (heparinized and stored frozen) is preincubated at 37° C. for 15 min in a shaking water bath. pH is measured using test strips. 25 μL of a 2 mg/mL solution cephalosporin compound (in water) of is then added to each matrix to make 1000 μL. Solutions were incubated at 37° C. 100 ul of solution was taken out at time=0, 15, 30, and 60 min post dose and added 200 μL 4% trichloroacetic acid, vortexed, and centrifuged for 10 min at 14,000 rpm in an Eppendorf microcentrifuge. 25 μL of each supernatant was injected onto HPLC. Experiment was repeated using 25 μL of a 0.2 mg/mL cephalosporin compound. Degradation is measured as the percentage of HPLC peak area at time t relative to peak area at time 0.
HPLC conditions: Beckman Ultrasphere C18 column. 5 u. 4.6 mm×25 cm. 1 mL/min of 95% 0.1 M ammonium acetate, pH 6, 5% ACN going to 75% buffer/organic over 20 min. UV monitored at 254 and 280 nm.

## NCCSCc1cnccc1SC1=C(C(=O)O)N2C(=O)[C@@H](NC(=O)/C(=N\O)c3nc(N)sc3Cl)[C@H]2SC1 [Cmpd 20, (7R)-7-[(Z)-2-(2-amino-5-chlorothiazol-4-yl)-2-(hydroxyimino)acetamido]-3-[3-(2-aminoethylthiomethyl)pyrid-4-ylthio]-3-cephem-4-carboxylic acid]
[1]
  MIC: 1 µg/mL (≈ 1.66 µM)
[2]
  Serum Binding human (% of compound bound to serum): 84%
[3]
  Serum Binding rat (% of compound bound to serum): 71%
[4]
  Serum Binding rhesus (% of compound bound to serum): 77%
[5]
  Stability in rat serum (% loss): 70%

## NCCSCc1nc(N)sc1SC1=C(C(=O)O)N2C(=O)[C@@H](NC(=O)/C(=N\O)c3nc(N)sc3Cl)[C@H]2SC1 [Cmpd 3, (7R)-7-[(Z)-2-(2-amino-5-chlorothiazol-4-yl)-2-(hydroxyimino)acetamido]-3-[4-(2-aminoethylthiomethyl)-2-amino-1,3-thiazol-5-ylthio]-3-cephem-4-carboxylic acid]
[1]
  MIC: 1 µg/mL (≈ 1.6 µM)
[2]
  Serum Binding human (% of compound bound to serum): 88%
[3]
  Serum Binding rat (% of compound bound to serum): 56%
[4]
  Serum Binding rhesus (% of compound bound to serum): 93%
[5]
  stability of compounds in rat serum: improved stability
  Stability in rat serum (% loss): 3%

## NCCSCc1cnccc1SC1=C(C(=O)O)N2C(=O)[C@@H](NC(=O)/C(=N\O)c3nsc(N)n3)[C@H]2SC1 [Cmpd 18, (7R)-7-[(Z)-2-(5-amino-1,2,4-thiadiazol-3-yl)-2-(hydroxyimino)acetamido]-3-[3-(2-aminoethylthiomethyl)pyrid-4-ylthio]-3-cephem-4-carboxylic acid]
[1]
  MIC: 1 µg/mL (≈ 1.76 µM)
[2]
  Serum Binding human (% of compound bound to serum): 66%
[3]
  Serum Binding rat (% of compound bound to serum): 55%
[4]
  Serum Binding rhesus (% of compound bound to serum): 67%
[5]
  Stability in rat serum (% loss): 23%

## NCCSCc1nc(SCCN)sc1SC1=C(C(=O)O)N2C(=O)[C@@H](NC(=O)/C(=N\O)c3nc(N)sc3Cl)[C@H]2SC1 [Cmpd 11, (7R)-7-[(Z)-2-(2-amino-5-chlorothiazol-4-yl)-2-(hydroxyimino)acetamido]-3-[4-(2-aminoethylthiomethyl)-2-aminoethylthio-1,3-thiazol-5-ylthio]-3-cephem-4-carboxylic acid]
[1]
  MIC: 0.5 µg/mL (≈ 0.732 µM)
[2]
  Serum Binding human (% of compound bound to serum): 83%
[5]
  Stability in rat serum (% loss): 47%

## N=C(N)NCCSCc1ncccc1SC1=C(C(=O)O)N2C(=O)[C@@H](NC(=O)/C(=N\O)c3nsc(N)n3)[C@H]2SC1 [Cmpd 14, (7R)-7-[(Z)-2-(5-amino-1,2,4-thiadiazol-3-yl)-2-(hydroxyimino)acetamido]-3-[2-(2-guanidinoethylthiomethyl)pyrid-3-ylthio]-3-cephem-4-carboxylic acid]
[2]
  Serum Binding human (% of compound bound to serum): 60%
[5]
  stability of compounds in rat serum: improved stability
  Stability in rat serum (% loss): 10%

## NCCSCc1cnccc1SC1=C(C(=O)O)N2C(=O)[C@@H](NC(=O)/C(=N\O)c3cccc(N)n3)[C@H]2SC1 [Cmpd 24, (7R)-7-[(Z)-2-(2-aminopyrid-6-yl)-2-(hydroxyimino)acetamido]-3-[3-(2-aminoethylthiomethyl)pyrid-4-ylthio]-3-cephem-4-carboxylic acid]
[1]
  MIC: 2 µg/mL (≈ 3.56 µM)
[2]
  Serum Binding human (% of compound bound to serum): 88%
[3]
  Serum Binding rat (% of compound bound to serum): 52%
[5]
  Stability in rat serum (% loss): 66%

## NCCSCc1ncsc1SC1=C(C(=O)O)N2C(=O)[C@@H](NC(=O)/C(=N\O)c3cccc(N)n3)[C@H]2SC1 [Cmpd 23, (7R)-7-[(Z)-2-(2-aminopyrid-6-yl)-2-(hydroxyimino)acetamido]-3-[4-(2-aminoethylthiomethyl)-1,3-thiazol-5-ylthio]-3-cephem-4-carboxylic acid]
[1]
  MIC: 2 µg/mL (≈ 3.52 µM)
[2]
  Serum Binding human (% of compound bound to serum): 94%
[3]
  Serum Binding rat (% of compound bound to serum): 77%
[4]
  Serum Binding rhesus (% of compound bound to serum): 93%
[5]
  stability of compounds in rat serum: improved stability
  Stability in rat serum (% loss): 19%

## NCCSCc1ncccc1SC1=C(C(=O)O)N2C(=O)[C@@H](NC(=O)/C(=N\O)c3nsc(N)n3)[C@H]2SC1 [Cmpd 17, (7R)-7-[(Z)-2-(5-amino-1,2,4-thiadiazol-3-yl)-2-(hydroxyimino)acetamido]-3-[2-(2-aminoethylthiomethyl)pyrid-3-ylthio]-3-cephem-4-carboxylic acid]
[2]
  Serum Binding human (% of compound bound to serum): 66%
[3]
  Serum Binding rat (% of compound bound to serum): 74%
[4]
  Serum Binding rhesus (% of compound bound to serum): 81%
[5]
  stability of compounds in rat serum: improved stability
  Stability in rat serum (% loss): 2%

## NCCSCc1ccncc1SC1=C(C(=O)O)N2C(=O)[C@@H](NC(=O)/C(=N\O)c3nc(N)sc3Cl)[C@H]2SC1 [Cmpd 21, (7R)-7-[(Z)-2-(2-amino-5-chlorothiazol-4-yl)-2-(hydroxyimino)acetamido]-3-[4-(2-aminoethylthiomethyl)pyrid-3-ylthio]-3-cephem-4-carboxylic acid]
[2]
  Serum Binding human (% of compound bound to serum): 90%
[3]
  Serum Binding rat (% of compound bound to serum): 97%
[4]
  Serum Binding rhesus (% of compound bound to serum): 97%
[5]
  stability of compounds in rat serum: improved stability
  Stability in rat serum (% loss): 3%

## NCCSCc1cnccc1SC1=C(C(=O)O)N2C(=O)C(NC(=O)/C(=N\O)c3csc(N)n3)C2SC1 (stereo not drawn) [Cmpd 19]
[1]
  MIC: 2 µg/mL (≈ 3.52 µM)
[2]
  Serum Binding human (% of compound bound to serum): 68%
[3]
  Serum Binding rat (% of compound bound to serum): 76%
[4]
  Serum Binding rhesus (% of compound bound to serum): 83%
[5]
  Stability in rat serum (% loss): 26%

## NCCSCc1ncccc1SC1=C(C(=O)O)N2C(=O)[C@@H](NC(=O)/C(=N\O)c3nc(N)sc3Cl)[C@H]2SC1 [Cmpd 13, (7R)-7-[(Z)-2-(2-amino-5-chlorothiazol-4-yl)-2-(hydroxyimino)acetamido]-3-[2-(2-aminoethylthiomethyl)pyrid-3-ylthio]-3-cephem-4-carboxylic acid]
[2]
  Serum Binding human (% of compound bound to serum): 90%
[3]
  Serum Binding rat (% of compound bound to serum): 85%
[5]
  stability of compounds in rat serum: improved stability
  Stability in rat serum (% loss): 9%

## N=C(N)NCCSCc1cnccc1SC1=C(C(=O)O)N2C(=O)[C@@H](NC(=O)/C(=N\O)c3nsc(N)n3)[C@H]2SC1 [Cmpd 25, (7R)-7-[(Z)-2-(5-amino-1,2,4-thiadiazol-3-yl)-2-(hydroxyimino)acetamido]-3-[3-(2-guanidinoethylthiomethyl)pyrid-4-ylthio]-3-cephem-4-carboxylic acid]
[1]
  MIC: 1 µg/mL (≈ 1.64 µM)
[2]
  Serum Binding human (% of compound bound to serum): 47%
[3]
  Serum Binding rat (% of compound bound to serum): 35%
[4]
  Serum Binding rhesus (% of compound bound to serum): 55%
[5]
  stability of compounds in rat serum: improved stability
  Stability in rat serum (% loss): 45%
